Test results reported in patent US20210196724A1, “BIARYL COMPOSITIONS AND METHODS FOR MODULATING A KINASE CASCADE” (Athenex, Inc., priority 2016, published 2021).
“And” between values parts separate entries of the source, which are not always exact repeats. Equal values may be shown once. Read-outs that look alike come from different tables or passages of the source.

Key:
GL261 cells = experiment: MTT cell growth inhibition (GI50), GL261; assay type: cell-based, murine; settings: 3 days
Procedure: (§1) The drug concentration required to block net cell growth by 50% relative to a control sample is measured as the GI50. The GI50s for several of the compounds of the application were assayed as described.
(§2) MTT assay: U87 and GL261 cells were seeded in 96-well plate (6×10^3 cells in 100 μl of DMEM+10% FBS media per well) and incubated overnight at 37° C. with 5% CO2. All test compounds were diluted (10 point 2-fold serial dilution) in a separate 96-well plate to yield 10× of final concentrations (0.5-256 nM). A volume of 11 μl of 10× dilutions was added to appropriate wells (n=3). To value (reflecting the starting number of cells upon drug treatment) was determined by following steps as described below. After 3 days incubation at 37° C. with 5% CO2, 10 μl of MTT solution (5 mg/ml in PBS) was added to each well and plates were incubated at 37° C. for 3 h to allow MTT to form formazan crystals by reacting with metabolically active cells. 100 μl of 20% SDS was added to each well and plates were incubated overnight at 37° C. with 5% CO2. Afterward, OD570 was measured using microplate reader. The cell growth percentage of control was calculated according to percentage of control=(T−T0)/(C−T0)×100% or OD value of the test well exposure to test drug—OD value at time zero/(OD of the control well without drug treatment−OD value at time zero)×100%. Growth inhibition curves and GI50 were determined using GraphPad Prism 5 software.

U87 cells = experiment: MTT cell growth inhibition (GI50), U87; assay type: cell-based, human; settings: 3 days
Procedure: as §1, §2

Jurkat = experiment: Cell growth inhibition (GI50), Jurkat; assay type: cell-based
Procedure: as §1

HT-29 = experiment: Cell growth inhibition (GI50), HT-29; assay type: cell-based
Procedure: as §1

- GI50 (U87 cells): 4 nM
- GI50 (Jurkat): 2.5 nM
- GI50 (Jurkat; Homo sapiens): 2.3 nM
- GI50 (HT-29; HT-29): 2.5 nM
- GI50 (HT-29; Homo sapiens, HT-29, HT-29): 3.1 nM
Compound: Cc1cc(N2CCOC[C@@H]2C)ccc1-c1ccc(CC(=O)NCc2ccccc2)nc1 (stereo in doubt) [Compound 104]
- GI50 (GL261 cells): 10 nM and 5.3 nM
